Values quoted from earlier work in patent US20130059872A1, “POLYMORPHS OF ALOGLIPTIN BENZOATE” (MAPI PHARMA LIMITED, priority 2010, published 2013).

Settings: DSC data according to WO 2007/035372; recrystallization at 132° C., melt onset at 183° C.

For `Cn1c(=O)cc(N2CCC[C@@H](N)C2)n(Cc2ccccc2C#N)c1=O` [amorphous form 1 of WO 2007/035372, alogliptin benzoate], the “solid-state stability of the amorphous phase on heating” value is given as “crystallized to crystalline form A during heating”.
